Laboratory results taken from EP2398468B1, “PHARMACEUTICAL COMPOSITIONS COMPRISING PRASUGREL BASE OR ITS PHARMACEUTICALLY ACCEPTABLE ACID ADDITION SALTS AND PROCESSES FOR THEIR PREPARATION” (KRKA, D.D., Novo Mesto, priority 2009, dated 2010).
Converted amounts (≈) assume the structure as drawn. Counter-ions that a name gives are not always drawn. Like-named read-outs stand apart in the source and are kept apart here. One block for each molecule: values may come before it.

Assays:
physchem = type: physicochemical
[1] = Equilibrium solubility in aqueous solutions, shaking flask method for 24 hours; type: physicochemical; conditions: for Solubility (mg/mL) at 37°C / Solubility (mg/mL) room temp / solubility at 24 h: 24 hours; for solubility at 24 h: thermodynamic from solid
Description: The solubility of prasugrel base and some of its pharmaceutically acceptable salts in different dissolution media (in mg/mL) at room temperature and 37°C is given in Table 2. The equilibrium solubility of prasugrel base and some of its salts were checked in aqueous solutions at room temperature and 37 °C with shaking flask method for 24 hours (Heidoplh Incubator 1000, Unimax 1010). In comparison with prasugrel base, all salts are better soluble in lower pH values. In higher pH values the solubility decreases and at pH 6.8 the compound is slightly soluble to practically insoluble. […]

Structure (SMILES): CC(=O)Oc1cc2c(s1)CCN(C(C(=O)C1CC1)c1ccccc1F)C2 (stereo not drawn) [Prasugrel base, 2-acetoxy-5-([alpha]-cyclopropylcarbonyl-2-fluorobenzyl)-4,5,6,7-tetrahydrothieno[3,2-c]pyridine]
- pKa (physchem): 5.4
- Solubility (mg/mL) at 37°C ([1]; AGJ (without pepsin) pH 1.2, 37°C): 3.23 mg/mL (≈ 8650 µM)
- Solubility (mg/mL) room temp ([1]; AGJ (without pepsin) pH 1.2, room temperature): 1.54 mg/mL (≈ 4120 µM)
- Solubility (mg/mL) at 37°C ([1]; Acetate Buffer solution pH 4.0, 37°C): 0.03 mg/mL (≈ 80.3 µM)
- Solubility (mg/mL) room temp ([1]; Acetate Buffer solution pH 4.0, room temperature): 0.03 mg/mL (≈ 80.3 µM)

- solubility at 24 h ([1]; AGJ (without pepsin) pH 1.2, 37 °C, pH 1.2, simulated gastric fluid, AGJ (without pepsin) pH 1.2, 37°C, read-out: Solubility (mg/mL) at 37°C): 4.1 mg/mL
- Solubility (mg/mL) room temp ([1]; AGJ (without pepsin) pH 1.2, room temperature, hydrobromide): 3.924 mg/mL
- Solubility (mg/mL) at 37°C ([1]; Acetate Buffer solution pH 4.0, 37°C, hydrobromide): 0.153 mg/mL
- Solubility (mg/mL) room temp ([1]; Acetate Buffer solution pH 4.0, room temperature, hydrobromide): 0.138 mg/mL
- Solubility (mg/mL) at 37°C ([1]; Phosphate Buffer solution pH 6.8, 37°C, hydrobromide): 0.009 mg/mL
- solubility at 24 h ([1]; phosphate buffer solution pH 6.8, pH 6.8, aqueous buffer, Phosphate Buffer solution pH 6.8, room temperature, read-out: Solubility (mg/mL) room temp): 0.003 mg/mL
Structure (SMILES): CC(=O)Oc1cc2c(s1)CCN(C(C(=O)C1CC1)c1ccccc1F)C2 (stereo not shown) [Prasugrel hydrobromide]

- Solubility (mg/mL) at 37°C ([1]; AGJ (without pepsin) pH 1.2, 37°C, hydrochloride): 4.43 mg/mL
- Solubility (mg/mL) room temp ([1]; AGJ (without pepsin) pH 1.2, room temperature, hydrochloride): 5.00 mg/mL
- Solubility (mg/mL) at 37°C ([1]; Acetate Buffer solution pH 4.0, 37°C, hydrochloride): 0.08 mg/mL
- Solubility (mg/mL) room temp ([1]; Acetate Buffer solution pH 4.0, room temperature, hydrochloride): 0.07 mg/mL
Structure (SMILES): CC(=O)Oc1cc2c(s1)CCN(C(C(=O)C1CC1)c1ccccc1F)C2 (stereo not shown) [Prasugrel hydrochloride]

- Solubility (mg/mL) at 37°C ([1]; AGJ (without pepsin) pH 1.2, 37°C, hydroiodide): 3.660 mg/mL
- Solubility (mg/mL) room temp ([1]; AGJ (without pepsin) pH 1.2, room temperature, hydroiodide): 2.600 mg/mL
- Solubility (mg/mL) at 37°C ([1]; Acetate Buffer solution pH 4.0, 37°C, hydroiodide): 0.166 mg/mL
- Solubility (mg/mL) room temp ([1]; Acetate Buffer solution pH 4.0, room temperature, hydroiodide): 0.132 mg/mL
- Solubility (mg/mL) at 37°C ([1]; Phosphate Buffer solution pH 6.8, 37°C, hydroiodide): 0.0018 mg/mL
- Solubility (mg/mL) room temp ([1]; Phosphate Buffer solution pH 6.8, room temperature, hydroiodide): 0.00316 mg/mL
Structure (SMILES): CC(=O)Oc1cc2c(s1)CCN(C(C(=O)C1CC1)c1ccccc1F)C2 (stereo not shown) [Prasugrel hydroiodide]
- equilibrium solubility ([1]; compared with hydrochloride salt of prasugrel): comparable with solubility of hydrochloride salt of prasugrel
